Measured values from publication PMC10233829 (ACS Omega, 2023).
Converted amounts (≈) assume the structure as drawn.

Columns and labels:
[1] = test system: S. aureus NCTC 4163; experiment: MIC, twofold microdilution, standard strain; format: cell-based; conditions: Staphylococcus aureus, NCTC4163, 18 h
[2] = test system: S. aureus ATCC 25923; experiment: MIC, twofold microdilution, standard strain; format: cell-based; conditions: Staphylococcus aureus, ATCC25923, 18 h
[3] = test system: S. aureus ATCC 6538; experiment: MIC, twofold microdilution, standard strain; format: cell-based, Staphylococcus aureus; conditions: Staphylococcus aureus, ATCC6538; standard strain, 18 h
[4] = test system: S. aureus ATCC 29213; experiment: MIC, twofold microdilution, standard strain; format: cell-based; conditions: Staphylococcus aureus, ATCC29213, 18 h
[5] = test system: S. epidermidis ATCC 12228; experiment: MIC, twofold microdilution, standard strain; format: cell-based; conditions: Staphylococcus epidermidis, ATCC12228, 18 h
[6] = test system: S. epidermidis ATCC 35984; experiment: MIC, twofold microdilution, standard strain; format: cell-based; conditions: Staphylococcus epidermidis, ATCC35984, 18 h
[7] = test system: P. aeruginosa ATCC 15442; experiment: MIC, twofold microdilution, standard strain; format: cell-based, Pseudomonas aeruginosa; conditions: Pseudomonas aeruginosa, ATCC15442; standard strain, 18 h
[8] = test system: E. coli ATCC 25922; experiment: MIC, twofold microdilution, standard strain; format: cell-based, Escherichia coli; conditions: Escherichia coli, ATCC25922; standard strain, 18 h
[9] = test system: S. aureus 180; experiment: MIC, twofold microdilution, clinical strain; format: cell-based; conditions: Staphylococcus aureus, 18 h
[10] = test system: S. aureus 5595; experiment: MIC, twofold microdilution, clinical strain; format: cell-based; conditions: Staphylococcus aureus, 18 h
[11] = test system: S. aureus T5595; experiment: MIC, twofold microdilution, clinical strain; format: cell-based, Staphylococcus aureus; conditions: Staphylococcus aureus, T5595, 18 h
[12] = test system: S. aureus T5591; experiment: MIC, twofold microdilution, clinical strain; format: cell-based, Staphylococcus aureus; conditions: Staphylococcus aureus, T5591, 18 h
[13] = test system: S. epidermidis 4341; experiment: MIC, twofold microdilution, clinical strain; format: cell-based; conditions: Staphylococcus epidermidis, 18 h
[14] = test system: S. epidermidis 5253; experiment: MIC, twofold microdilution, clinical strain; format: cell-based, Staphylococcus epidermidis; conditions: for MIC: Staphylococcus epidermidis, 5253, 18 h
[15] = test system: S. epidermidis KR4243/1; experiment: MIC, twofold microdilution, clinical strain; format: cell-based; conditions: Staphylococcus epidermidis, 18 h
[16] = test system: S. pasteuri KR 4358; experiment: MIC, twofold microdilution, clinical strain; format: cell-based; conditions: Staphylococcus pasteuri, KR4358, 18 h
[17] = test system: P. aeruginosa 37; experiment: MIC, twofold microdilution, clinical strain; format: cell-based; conditions: Pseudomonas aeruginosa, 18 h
[18] = test system: P. aeruginosa 659; experiment: MIC, twofold microdilution, clinical strain; format: cell-based; conditions: Pseudomonas aeruginosa, 18 h
[19] = test system: E. coli 951; experiment: MIC, twofold microdilution, clinical strain; format: cell-based; conditions: Escherichia coli, 18 h
[20] = test system: E. coli 520; experiment: MIC, twofold microdilution, clinical strain; format: cell-based; conditions: Escherichia coli, 18 h
[21] = test system: E. coli 600; experiment: MIC, twofold microdilution, clinical strain; format: cell-based, Escherichia coli; conditions: Escherichia coli, 600, 18 h
[22] = test system: E. cloacae 8; experiment: MIC, twofold microdilution, clinical strain; format: cell-based, Escherichia cloacae; conditions: Enterobacter cloacae, 8; clinical strain, 18 h
[23] = test system: K. pneumoniae 28; experiment: MIC, twofold microdilution, clinical strain; format: cell-based; conditions: Klebsiella pneumoniae, 18 h
[24] = test system: K. pneumoniae 510; experiment: MIC, twofold microdilution, clinical strain; format: cell-based, Klebsiella pneumoniae; conditions: Klebsiella pneumoniae, 510; clinical strain, 18 h
[25] = test system: M. tuberculosis H37Rv; experiment: Tuberculostatic activity, Microplate Alamar Blue Assay (MIC); format: cell-based, Mycobacterium tuberculosis; conditions: Mycobacterium tuberculosis, H37RV; MABA; read-out: MIC M. tuberculosis H37Rv
[26] = test system: M. tuberculosis Spec. 192; experiment: as above; format: cell-based; conditions: Mycobacterium tuberculosis, MABA, read-out: MIC M. tuberculosis Spec. 192 (sensitive to tuberculostatics)
[27] = test system: PC3 cells; experiment: MTT assay, cytotoxic activity; format: cell-based, human; conditions: Homo sapiens, PC-3, 72 h, MTT, 72 h
Protocol: Metastatic prostate cancer (PC3) and human immortal keratinocyte (HaCaT) cell lines were purchased from the American Type Culture Collection (ATCC, Rockville, MD, USA) and cultured in MEM (minimal essential medium, Thermo Sci, USA), RPMI 1640 (Roswell Park Memorial Institute, Biowest SAS, France), and DMEM (Dulbecco’s Modified Eagle’s Medium, Biowest SAS, France). Cells were seeded in 6 mL medium in a tissue culture flask (50 mL) in a 37 °C/5% CO2 humidified incubator. […] MTT analysis was performed according to a previous study.[59] Untreated cells were used as controls. Cell absorbance results were inserted into the formula for the relative MTT level (%). It allows to calculate the viability of cells under the influence of the tested compounds. Cell viability was expressed as the percentage of MTT reduction in cells treated with tested compounds compared to the control sample. The relative MTT level was calculated using the formula [100%] = A/B × 100% where A—the test sample absorbance and B—the control sample absorbance.

[28] = MTT assay, cytotoxic activity; format: cell-based; conditions: human, HaCaT cells (immortal keratinocytes); MTT, 72 h, normal cell line; read-out: IC50 HaCaT
Protocol: Cells were seeded in 6 mL medium in a tissue culture flask (50 mL) in a 37 °C/5% CO2 humidified incubator. […] MTT analysis was performed according to a previous study.[59] Untreated cells were used as controls. Cell absorbance results were inserted into the formula for the relative MTT level (%). It allows to calculate the viability of cells under the influence of the tested compounds. Cell viability was expressed as the percentage of MTT reduction in cells treated with tested compounds compared to the control sample. The relative MTT level was calculated using the formula [100%] = A/B × 100% where A—the test sample absorbance and B—the control sample absorbance.

[29] = test system: Staphylococci (standard strains); experiment: MIC, standard Gram-positive strains as a panel; format: cell-based, S. aureus, S. epidermidis; conditions: standard Gram-positive strains of Table 1; read-out: MIC toward standard Staphylococci (range over strains)
[30] = test system: P. aeruginosa ATCC 15442 and E. coli ATCC 25922; experiment: MIC, standard Gram-negative rods as a panel; format: cell-based; conditions: P. aeruginosa ATCC 15442, E. coli ATCC 25922; read-out: MIC against standard Gram-negative rods (range over strains)
[31] = test system: clinical bacterial strains; experiment: MIC, clinical isolates as groups of strains; format: cell-based
[32] = test system: M. tuberculosis Spec 210; experiment: microbe, parasite or virus in culture; format: cell-based, Mycobacterium tuberculosis; conditions: M. tuberculosis Spec. 210

Compound `O=C(O)c1cn(C2CC2)c2cc(N3CCN(C(=O)CCCCCCl)CC3)c(F)cc2c1=O` [Compound 7, 7-[4-(6-Chlorohexanoyl)-piperazin-1-yl]-1-cyclopropyl-6-fluoro-4-oxo-1,4-dihydro-quinoline-3-carboxylic Acid] has an MIC [1] of 0.2 µg/mL (≈ 0.431 µM), an MIC [2] of 0.2 µg/mL (≈ 0.431 µM) and an MIC [3] of 0.2 µg/mL (≈ 0.431 µM). The MIC [4] was 0.2 µg/mL (≈ 0.431 µM), the MIC [5] was 0.4 µg/mL (≈ 0.862 µM) and the MIC [6] was 0.2 µg/mL (≈ 0.431 µM). The MIC [7] was 12.8 µg/mL (≈ 27.6 µM), the MIC [8] was 0.8 µg/mL (≈ 1.72 µM) and the MIC [9] was 0.5 µg/mL (≈ 1.08 µM). It also gave an MIC [10] of 0.5 µg/mL (≈ 1.08 µM), an MIC [11] of 0.4 µg/mL (≈ 0.862 µM) and an MIC [12] of 0.4 µg/mL (≈ 0.862 µM). The MIC [13] was 25.6 µg/mL (≈ 55.2 µM), the MIC [14] was > 25.6 µg/mL and the MIC [15] was 0.2 µg/mL (≈ 0.431 µM). For the same compound, the MIC [16] was 0.2 µg/mL (≈ 0.431 µM), the MIC [17] was > 25.6 µg/mL and the MIC [18] was > 25.6 µg/mL. For the same compound, the MIC [19] was > 25.6 µg/mL, the MIC [20] was 6.4 µg/mL (≈ 13.8 µM) and the MIC [21] was 6.4 µg/mL (≈ 13.8 µM). For the same compound, the MIC [22] was 16 µg/mL (≈ 34.5 µM), the MIC [23] was > 25.6 µg/mL and the MIC [24] was > 25.6 µg/mL. For the same compound, the MIC [25] was 0.5 µg/mL (≈ 1.08 µM), the MIC [26] was 0.5 µg/mL (≈ 1.08 µM) and the IC50 [27] was > 100 µM. The IC50 at 72 h [28] was > 100 µM, the MIC [29] was 0.1 to 0.8 µg/mL (≈ 0.216 to 1.72 µM) and the MIC [30] was ≤ 1 µg/mL. For the same compound, the “share of the reference (CP) activity” value ([31]; S. aureus T5595 and T5591) was 62.5%.
Work on `O=C(O)c1cn(C2CC2)c2cc(N3CCN(C(=O)CBr)CC3)c(F)cc2c1=O` [Compound 8, 7-[4-(2-Bromoacetyl)-piperazin-1-yl]-1-cyclopropyl-6-fluoro-4-oxo-1,4-dihydro-quinoline-3-carboxylic Acid] yielded an MIC [1] of 0.2 µg/mL (≈ 0.442 µM), an MIC [2] of 0.2 µg/mL (≈ 0.442 µM) and an MIC [3] of 0.2 µg/mL (≈ 0.442 µM). For the same compound, the MIC [4] was 0.4 µg/mL (≈ 0.884 µM), the MIC [5] was 0.2 µg/mL (≈ 0.442 µM) and the MIC [6] was 0.2 µg/mL (≈ 0.442 µM). The MIC [7] was 3.2 µg/mL (≈ 7.08 µM), the MIC [8] was 0.2 µg/mL (≈ 0.442 µM) and the MIC [9] was 0.8 µg/mL (≈ 1.77 µM). For the same compound, the MIC [10] was 0.4 µg/mL (≈ 0.884 µM), the MIC [11] was 0.8 µg/mL (≈ 1.77 µM) and the MIC [12] was 1.6 µg/mL (≈ 3.54 µM). The MIC [13] was 12.8 µg/mL (≈ 28.3 µM), the “MIC S. epidermidis 5253” value ([14]; 18 h) was 25.6 µg/mL (≈ 56.6 µM) and the MIC [14] was 12.8 to 25.6 µg/mL (≈ 28.3 to 56.6 µM). It also gave an MIC [15] of 0.4 µg/mL (≈ 0.884 µM), an MIC [16] of 0.2 µg/mL (≈ 0.442 µM) and an MIC [17] of 12.8 µg/mL (≈ 28.3 µM). The MIC [18] was 6.4 µg/mL (≈ 14.2 µM), the MIC [19] was 6.4 µg/mL (≈ 14.2 µM) and the MIC [20] was 0.2 µg/mL (≈ 0.442 µM). For the same compound, the MIC [21] was 0.2 µg/mL (≈ 0.442 µM), the MIC [22] was 0.8 µg/mL (≈ 1.77 µM) and the MIC [23] was > 25.6 µg/mL. The MIC [24] was 25.6 µg/mL (≈ 56.6 µM), the MIC [25] was 32 µg/mL (≈ 70.8 µM) and the MIC [26] was 32 µg/mL (≈ 70.8 µM). For the same compound, the “fold more effective than the reference tuberculostatics” value [32] was 2–8 fold, the IC50 [27] was 39.6 ± 4.3 µM and the IC50 at 72 h [28] was 44.9 ± 9 µM. The MIC [30] was ≤ 1 µg/mL and the MIC ([31]; clinical strains, read-out: MIC against selected E. coli and E. cloacae strains) was 0.1 to 0.8 µg/mL (≈ 0.221 to 1.77 µM).
